Assay results as given in patent US20260028374A1, “EPIDERMAL GROWTH FACTOR RECEPTOR INHIBITORS” (FILAMON LTD, priority 2023, published 2026).
Square brackets hold non-standard residues; d marks the D form. Peptide text beside a SMILES is read from it. 2Nal = N[C@@H](Cc1ccc2ccccc2c1)C(=O)O; d1Nal = N[C@H](Cc1cccc2ccccc12)C(=O)O

Legend:
[1] = target: T1, EGF-EGFR interaction (Homo sapiens, UniProt P00533); assay: EGF-EGFR AlphaLISA assay; type: binding; details: in vitro AlphaLISA; for inhibition of the EGF/EGFR interaction: 0.01-200 μM
T1 construct: purchased Perkin-Elmer
Procedure: FIG. 2. […] Representation of the molecules are as described in FIG. 1.
The AlphaLISA EGF/EGFR binding kit (Perkin-Elmer) was used as per the manufacturer's instructions. […] Finally, 5 μL of EGFR acceptor beads were added, and fluorescence imaged on a plate reader.

[2] = target: T2, EGFR (Homo sapiens, UniProt P00533); assay: Western blot of EGFR in PC-3 cells; type: cell-based; details: PC-3, 100 μM, time course 3, 16, 24 and 48 hours
Procedure: (§1) FIG. 3. (a) PC-3 cells treated with DMSO (0.5%), FLM-c2 (100 μM), D1-D3 (100 μM) or EGF (50 ng/mL) for 24 h, detected for EGFR and GAPDH. (b) PC-3 cells tagged with EGFR-EGFP and lysotracker treated with DMSO (0.5%) or D3 (100 μM) for 24 h.
FIG. 4. (a) PC-3 cells were treated with D1-D3 (100 μM) for 3, 16, 24 and 48 hours. EGFR and ß-Actin ratio was detected. (b) the EGFR:ß-Actin ratio was plotted after normalising to DMSO control.
PC-3 cells were seeded in a 6 well plate at 200,000 cells/well overnight at 37° C. and 5% C02. Media was removed, cells were washed with PBS and serum free media added 1 hour before treatment with FLM-c2, D1-D3 for 3-48 hours. After treatment, media was removed and cells were washed with ice cold PBS. PBS was removed and cells were scraped into 1 mL of PBS containing 5.3 mM of EDTA and centrifuged at 2500 g for 2 min. PBS was removed and cells were lysed with lysis buffer (PBS, 0.1% NP-40, 0.1% sodium deoxycholate, 150 mM NaCl, 1 mM EDTA, 1 mM dithiothreitol, 1 mM phenylmethylsulfonyl fluoride, and IX protease inhibitor cocktail)^17 and mixed with RM-2L Intelli-mixer for 30 min at 4° C. Lysates were then centrifuged at 12,000 g for 20 min at 4° C. 20 μg of lysate was added to 4 μL of Bolt reducing agent and 10 μL of reducing buffer (both reagents supplied by Thermo Fisher Scientific) for a final volume of 40 μL with PBS. Samples were boiled and run on a gel, transferred to a membrane and blocked for 1 hour in 5% skim milk at 25° C. Membrane was probed with either EGFR antibody #2232, GAPDH antibody #2118 or BS-Actin antibody #4970 (Cell Signalling) at 1:1000 in 5% skim milk/TBST overnight at 4° C. Each membrane was washed three times with 50 mL TBST for 5 mins and then incubated with the relevant secondary α-rabbit IgG-HRP-linked antibody (1:1000), for 1 hour at room temperature. The membrane was washed as described above and imaged with the Licor Odyssey.

[3] = system: pERK; assay: pERK immunofluorescence in A549 cells after EGF stimulation; type: cell-based; details: A549, 100 μM for 16 hours, then EGF 10 ng/mL
Procedure: FIG. 6: A549 cells were treated with DMSO or D1-D3 (10-100 μM) for 16 hours before incubation with EGF (10 ng/mL) for 30 minutes, before cells were fixed and stained for pERK (green). Scale bars 20 μm, n=3, >20 cells per replicate.
To examine whether LYTAPs can inhibit EGFR downstream signalling, A549 cells were pre-incubated with 10-100 μM of D1-D3 for 16 hours, before stimulation with EGF (10 ng/mL) for […]. Cells were then fixed and immunofluorescently stained for pERK.

[4] = system: NSCLC cell lines H3255 and H1975; assay: Combination cell viability in NSCLC cell lines; type: cell-based; details: H3255 and H1975, 72 hours
[5] = system: SW48 and SW48G12V; assay: Combination cell viability in isogenic CRC cell lines; type: cell-based; details: D1 0.001-100 μM with cetuximab 0.02-30 μg/mL, 72 hours
[6] = target: T2, EGFR; assay: EGFR and lysotracker staining in A549 cells; type: cell-based; set-up: endogenous in cells; host or cells: A549; details: A549, 16 hours
Procedure: FIG. 5: (a) A549 cells were treated with DMSO (0.5%), EGF (50 ng/mL), or D1-D3 (1-100 μM) for 16 hours, before staining with lysotracker (red), fixing and staining with EGFR antibody (green). (b) EGFR signal, (c) EGFR membrane signal, (d) lysotracker signal and (e) EGFR speckle lysotracker signal (bars SEM) were quantified (n=3, >20 cells per replicate). Scale bars 20 μm.
To investigate the mechanism of how LYTAPS cause EGFR degradation, LYTAPs D1-D3 (1-100 μM) were incubated on A549 cells for 16 hours, with DMSO (0.5%) and high EGF (50 ng/mL) used as controls. Cells were then stained with Lysotracker, fixed and stained with EGFR-antibody. Under DMSO control, the majority of EGFR signal is present at the membrane (FIG. 5a).

[7] = system: CRC and NSCLC cancer cell lines; assay: Proliferation assays in CRC and NSCLC cancer cell lines
[8] = target: T2, EGFR; assay: Live cell imaging, EGFR-EGFP and lysotracker in PC-3 cells; type: cell-based; details: PC-3, EGFR-EGFP and lysotracker, 100 μM, 24 hours
Procedure: as §1
PC-3 cells were seeded in a 24 well glass-bottom plate at 50 000 cells/well and incubated overnight at 37° C. and 5% CO2. Complete media was removed, wells washed with 500 μL of warm PBS for 1 min then removed and 500 μL serum free medium was added and left to incubate for one hour at 37° C. and 5% CO2. Cells were co-transfected with plasmids encoding fusion protein EGFR-EGFP (Addgene plasmid #32751, a gift from Alexander Sorkin) using Lipofectamine 3000 (Thermo Fisher Scientific) as per the manufacturer's instructions. Cells were incubated for 48 hours at 37° C. and 5% CO2, after which transfection efficiency was determined through observation of EGFP and signal with a confocal microscope LSM 800 (Zeiss). LysoTracker far red (Thermo Fisher Scientific) was incubated at 1 μM for 37° C. and 5% CO2. Cells were washed three times with PBS and serum free media was added to cells, Either DMSO (0.5%) or D3 (100 μM) were added overnight at 37° C. and 5% CO2 before imaging on the confocal microscope LSM 800 (Zeiss).

[9] = system: EGFR, Rab5 and hGIIA localisation; assay: Live cell imaging of EGFR, Rab5 and hGIIA localisation in PC-3 cells; type: cell-based; details: PC-3, Lapatinib 5 μM, control for EGFR inhibition
Procedure: (e) PC-3 cells co-transfected with Rab5-mCherry (red), EGFR-GFP (green) and treated with hGIIA/AF647 (purple) as well as c2 at 1 μM and 10 μM for 24 hours. EGF (25 ng/mL) and Lapatinib (5 μM) were used as control treatments. N=3, >5 cells per replicate.
The effect of c2 on EGFR, Rab5 and hGIIA localisation was also examined in PC-3 cells. PC-3 cells were co-transfected with EGFR-EGFP and Rab5-mCherry before treatment with hGIIA/AF647 and c2 at 0, 1 and 10 μM.

[10] = system: H3255; details: H3255, EGFR - L858R, cited from earlier work
[11] = system: H1975; details: H1975, EGFR- L858R/T790M, cited from earlier work
[12] = read-out: Resistance (value in brackets)

T2 sequence (P00533 25-1210): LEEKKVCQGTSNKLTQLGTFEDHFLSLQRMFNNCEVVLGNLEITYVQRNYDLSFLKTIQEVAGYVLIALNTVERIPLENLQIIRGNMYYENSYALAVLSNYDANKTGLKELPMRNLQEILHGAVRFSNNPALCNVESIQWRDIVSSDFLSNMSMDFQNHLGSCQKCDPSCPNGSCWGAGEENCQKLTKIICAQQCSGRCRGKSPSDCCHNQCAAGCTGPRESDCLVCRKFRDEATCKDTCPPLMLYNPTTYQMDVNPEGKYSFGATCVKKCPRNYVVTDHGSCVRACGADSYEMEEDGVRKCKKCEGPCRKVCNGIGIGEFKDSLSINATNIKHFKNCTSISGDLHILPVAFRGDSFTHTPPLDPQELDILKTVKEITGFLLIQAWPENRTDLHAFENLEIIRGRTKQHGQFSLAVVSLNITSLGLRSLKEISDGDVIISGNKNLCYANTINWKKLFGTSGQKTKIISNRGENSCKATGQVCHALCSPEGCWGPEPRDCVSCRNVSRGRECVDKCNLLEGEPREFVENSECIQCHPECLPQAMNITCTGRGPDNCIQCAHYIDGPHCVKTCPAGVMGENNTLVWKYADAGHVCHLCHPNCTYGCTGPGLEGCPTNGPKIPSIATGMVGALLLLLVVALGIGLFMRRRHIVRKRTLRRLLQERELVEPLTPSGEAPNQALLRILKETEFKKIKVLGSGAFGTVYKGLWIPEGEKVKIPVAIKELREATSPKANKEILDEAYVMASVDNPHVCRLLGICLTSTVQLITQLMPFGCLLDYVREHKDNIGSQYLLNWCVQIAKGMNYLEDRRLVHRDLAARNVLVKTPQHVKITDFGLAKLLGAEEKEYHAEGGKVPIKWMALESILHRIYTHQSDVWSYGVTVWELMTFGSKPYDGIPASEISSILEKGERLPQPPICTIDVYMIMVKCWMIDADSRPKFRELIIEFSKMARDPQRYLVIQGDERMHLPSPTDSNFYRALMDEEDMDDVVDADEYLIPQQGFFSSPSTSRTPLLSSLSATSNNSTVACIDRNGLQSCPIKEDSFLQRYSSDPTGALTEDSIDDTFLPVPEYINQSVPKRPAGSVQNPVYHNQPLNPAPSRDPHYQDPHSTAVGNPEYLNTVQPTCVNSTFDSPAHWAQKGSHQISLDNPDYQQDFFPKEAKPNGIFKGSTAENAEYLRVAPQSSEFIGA
T1 sequence (P00533 25-645 limits assumed): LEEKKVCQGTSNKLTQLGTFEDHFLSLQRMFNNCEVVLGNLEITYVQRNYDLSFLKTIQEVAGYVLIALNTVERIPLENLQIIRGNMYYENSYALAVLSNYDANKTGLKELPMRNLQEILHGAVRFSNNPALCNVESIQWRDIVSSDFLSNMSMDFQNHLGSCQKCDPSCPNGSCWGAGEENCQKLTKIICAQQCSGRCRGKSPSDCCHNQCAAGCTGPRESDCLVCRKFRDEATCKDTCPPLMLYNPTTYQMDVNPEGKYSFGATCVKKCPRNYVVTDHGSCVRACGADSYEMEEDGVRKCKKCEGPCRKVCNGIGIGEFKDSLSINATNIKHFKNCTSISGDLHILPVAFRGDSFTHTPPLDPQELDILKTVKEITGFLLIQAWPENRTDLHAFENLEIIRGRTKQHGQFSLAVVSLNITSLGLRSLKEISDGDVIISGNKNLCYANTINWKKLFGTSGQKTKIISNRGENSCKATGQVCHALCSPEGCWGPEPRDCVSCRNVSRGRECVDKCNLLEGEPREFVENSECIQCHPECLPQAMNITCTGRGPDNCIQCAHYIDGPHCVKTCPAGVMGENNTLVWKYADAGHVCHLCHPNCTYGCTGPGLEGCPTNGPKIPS

| SMILES | potency order in inhibiting the EGF/EGFR interaction [1] | inhibition of the EGF/EGFR interaction [1] | recovery of EGFR levels [2] | lysotracker signal of endocytosed EGFR speckles ([6]; 1 μM) | EGFR signal ([6]; 1 μM, vs DMSO) | lysotracker signal ([6]; 100 μM) | lysotracker signal of endocytosed EGFR speckles ([6]; 100 μM) | further results |
| --- | --- | --- | --- | --- | --- | --- | --- | --- |
| CC(C)C[C@@H]1NC(=O)[C@@H](Cc2cccc3ccccc23)NC(=O)[C@H](CCCNC(=N)N)NC(=O)[C@H](Cc2ccc3ccccc3c2)NC(=O)[C@H](CO)NC1=O [Compound D1, cyclo[(D-1Nal)-Leu-Ser-(L-2Nal)-Arg]] (cyclo([2Nal]R[d1Nal]LS)) | FLM-c2>D1>D2>D3 | inhibited the EGF/EGFR interaction at high concentrations | returned to normal by 24 and 48 hours | significantly increased lysotracker signal | significant reduction in EGFR signal | increased lysotracker signal | significantly increased lysotracker signal | pERK signal, comparison among LYTAPs [3]: largest effect; synergy with cetuximab [4]: potent synergy; synergy with cetuximab, U0126 and chloroquine [4]: exhibited synergy with all three; synergy with cetuximab [5]: significant synergy; fraction of membrane-localised EGFR signal ([6]; 100 μM, vs DMSO): significantly reduced; IC50 compared with c2, D2 and D3 ([7]; H3255, HCC827, H1975, HCT116, SW48, SW48G12V, HT29, RKO, 0.01-300 μM, 72 hours): lowest IC50 in all cell lines; efficacy in NSCLC cell lines sensitive and resistant to erlotinib ([7]; HCC827, H1975 and H3255): retained efficacy; efficacy in cetuximab sensitive and resistant cell lines ([7]; SW48 vs SW48G12V, HT29, HCT116 and RKO): comparable efficacy |
| CC(C)C[C@@H]1NC(=O)[C@@H](Cc2ccccc2)NC(=O)[C@H](CCCNC(=N)N)NC(=O)[C@H](Cc2ccc3ccccc3c2)NC(=O)[C@H](CO)NC1=O [Compound D2, cyclo[(D-Phe)-Leu-Ser-(L-2Nal)-Arg]] (cyclo([2Nal]R[dF]LS)) | FLM-c2>D1>D2>D3 | inhibited the EGF/EGFR interaction at high concentrations | returned to normal by 24 and 48 hours | significantly increased lysotracker signal | significant reduction in EGFR signal | increased lysotracker signal |  |  |
| CC(C)C[C@@H]1NC(=O)[C@@H](Cc2ccccc2)NC(=O)[C@H](CCCNC(=N)N)NC(=O)[C@H](Cc2ccccc2)NC(=O)[C@H](CO)NC1=O [Compound D3, cyclo[(D-Phe)-Leu-Ser-(L-Phe)-Arg)]] (cyclo(FR[dF]LS)) | FLM-c2>D1>D2>D3 | inhibited the EGF/EGFR interaction at high concentrations |  |  | significant reduction in EGFR signal |  | significantly increased lysotracker signal | colocalization of EGFR with lysosomes [8]: confirmed colocalization of EGFR with lysosomes |
| CS(=O)(=O)CCNCc1ccc(-c2ccc3ncnc(Nc4ccc(OCc5cccc(F)c5)c(Cl)c4)c3c2)o1 [Lapatinib] |  |  |  |  |  |  |  | effect on EGFR, Rab5 and hGIIA localisation [9]: altering the localisation of hGIIA and Rab5 to become less punctate and more cytosolic |
| C#Cc1cccc(Nc2ncnc3cc(OCCOC)c(OCCOC)cc23)c1 [erlotinib] |  |  |  |  |  |  |  | Resistance [10]: Erlotinib sensitive; IC50 [10, 12]: 40 nM; Resistance [11]: Erlotinib resistant; IC50 [11, 12]: 4300 nM |
